pIC50: −log10 of the molar value.
Biological target: CD73 (Homo sapiens (Human), UniProt P21589)
Assay: Biochemical assay: inhibition of CD73 activity (AMP hydrolysis, Malachite Green readout)
Conditions: CD73 0.3208 nM, AMP 15 μM, 25 mM Tris-HCl pH 7.4, RT, absorbance 620 nm
Method: Example A1: Biochemical Assay
Assay Reaction Conditions
• Assay Volume: 70 μl • Reaction Volume: 50 μl • CD73: 0.3208 nM • AMP: 15 μM • Assay Buffer: 25 mM Tris-HCL, pH 7.4, 0.01% Brij-35, 0.01% BSA, 5 mM MgCl2 Assay Procedure:
Made dose titration of testing compounds in assay buffer, 10 points ½ log titrations in duplicates starting at 100 μM.
Added 25 μl of CD73 to each well for a final concentration of 320 pM.
Incubated at RT for 15 min.
Added 25 μl of AMP to each well for a final concentration of 15 μM.
Incubated at RT for 10 min.
Added 10 μl of Malachite Green Reagent A, incubate at RT for 10 min.
Added 10 of Malachite Green Reagent B, incubate at RT for 45 min.
Read the Absorbance on Envision plate reader using excitation filter: Cy5 […].
The ability of the compounds disclosed herein to inhibit CD73 activity was quantified and the respective IC50 values were determined. Table 2 provides the biochemical IC50 values of compounds disclosed herein.

Chain of CD73 (P21589 27-574): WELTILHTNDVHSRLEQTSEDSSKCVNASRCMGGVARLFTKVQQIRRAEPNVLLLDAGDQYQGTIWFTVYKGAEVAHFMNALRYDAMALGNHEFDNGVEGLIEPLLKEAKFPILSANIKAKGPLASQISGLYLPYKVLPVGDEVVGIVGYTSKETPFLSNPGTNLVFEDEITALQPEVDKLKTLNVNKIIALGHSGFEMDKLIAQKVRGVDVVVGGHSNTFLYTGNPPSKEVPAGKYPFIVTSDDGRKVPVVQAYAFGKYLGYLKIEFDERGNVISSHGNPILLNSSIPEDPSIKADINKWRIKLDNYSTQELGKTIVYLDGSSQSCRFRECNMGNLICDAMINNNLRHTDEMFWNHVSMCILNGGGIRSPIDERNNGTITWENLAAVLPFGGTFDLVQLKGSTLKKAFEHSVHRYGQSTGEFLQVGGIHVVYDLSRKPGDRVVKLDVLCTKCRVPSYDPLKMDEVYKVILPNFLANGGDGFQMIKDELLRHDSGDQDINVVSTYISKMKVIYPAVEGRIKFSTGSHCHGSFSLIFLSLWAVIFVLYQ

Row | pIC50 | SMILES
1 | ≥ 7.00 | C[C@](CO)(OC[C@H]1O[C@@H](n2ncc3c(N[C@@H]4CC[C@H]5CCC[C@H]54)nc(Cl)nc32)[C@H](O)[C@@H]1O)P(=O)(O)O (racemic) [Example 173, rac-((R)-2-(((2S,3R,4S,5S)-5-(6-chloro-4-(((1S,3aS,6aS)-octahydropentalen-1-yl)amino)-1H-pyrazolo[3,4-d]pyrimidin-1-yl)-3,4-dihydroxytetrahydrofuran-2-yl)methoxy)-1-hydroxypropan-2-yl)phosphonic acid]
2 | ≥ 7.00 | O=P(O)(O)C(CO)(CO)OC[C@H]1O[C@@H](n2ncc3c(NC4CCCC4)nc(Cl)nc32)[C@H](O)[C@@H]1O [Example 86, [1-[[(2R,3S,4R,5R)-5-[6-Chloro-4-(cyclopentylamino)pyrazolo[3,4-d]pyrimidin-1-yl]-3,4-dihydroxy-tetrahydrofuran-2-yl]methoxy]-2-hydroxy-1-(hydroxymethyl)ethyl]phosphonic acid]
3 | ≥ 7.00 | COCC(OC[C@H]1O[C@@H](n2ncc3c(NC4CCCC4)nc(Cl)nc32)[C@H](O)[C@@H]1O)(C(=O)O)P(=O)(O)O (mixture of isomers) [Example 221, rac-(R)-2-(((2R,3S,4R,5R)-5-(6-chloro-4-(cyclopentylamino)-1H-pyrazolo[3,4-d]pyrimidin-1-yl)-3,4-dihydroxytetrahydrofuran-2-yl)methoxy)-3-methoxy-2-phosphonopropanoic acid]
4 | ≥ 7.00 | O=P(O)(O)C(CO)(CO)OC[C@H]1O[C@@H](n2ncc3c(N[C@@H]4CC[C@H]5CCC[C@H]54)nc(Cl)nc32)[C@H](O)[C@@H]1O (racemic) [Example 164, rac-(2-(((2R,3S,4R,5R)-5-(6-chloro-4-(((1R,3aR,6aR)-octahydropentalen-1-yl)amino)-1H-pyrazolo[3,4-d]pyrimidin-1-yl)-3,4-dihydroxytetrahydrofuran-2-yl)methoxy)-1,3-dihydroxypropan-2-yl)phosphonic acid]
5 | ≥ 7.00 | C[C@@](CO)(OC[C@H]1O[C@@H](n2ncc3c(NC4CC5(CCC5)C4)nc(Cl)nc32)[C@H](O)[C@@H]1O)P(=O)(O)O [Example 126, ((R)-2-(((2R,3S,4R,5R)-5-(6-chloro-4-(spiro[3.3]heptan-2-ylamino)-1H-pyrazolo[3,4-d]pyrimidin-1-yl)-3,4-dihydroxytetrahydrofuran-2-yl)methoxy)-1-hydroxypropan-2-yl)phosphonic acid]
6 | ≥ 7.00 | C[C@@](CO)(OC[C@H]1O[C@@H](n2ncc3c(N[C@@H]4CC[C@H]5CCC[C@H]54)nc(Cl)nc32)[C@H](O)[C@@H]1O)P(=O)(O)O (racemic) [Example 182, rac-((R)-2-(((2R,3S,4R,5R)-5-(6-chloro-4-(((1R,3aR,6aR)-octahydropentalen1-yl)amino)-1H-pyrazolo[3,4-d]pyrimidin-1-yl)-3,4-dihydroxytetrahydrofuran-2-yl)methoxy)-1-hydroxypropan-2-yl)phosphonic acid]
7 | ≥ 7.00 | C[C@@](Cc1nn[nH]n1)(OC[C@H]1O[C@@H](n2ncc3c(NC4CCCC4)nc(Cl)nc32)[C@H](O)[C@@H]1O)P(=O)(O)O [Example 119, ((R)-2-(((2R,3S,4R,5R)-5-(6-chloro-4-(cyclopentylamino)-1H-pyrazolo[3,4-d]pyrimidin-1-yl)-3,4-dihydroxytetrahydrofuran-2-yl)methoxy)-1-(2H-tetrazol-5-yl)propan-2-yl)phosphonic acid]
8 | ≥ 7.00 | C[C@](CS(C)(=O)=O)(OC[C@H]1O[C@@H](n2ncc3c(NC4CCCC4)nc(Cl)nc32)[C@H](O)[C@@H]1O)P(=O)(O)O [Example 73, ((S)-2-(((2R,3S,4R,5R)-5-(6-chloro-4-(cyclopentylamino)-1H-pyrazolo[3,4-d]pyrimidin-1-yl)-3,4-dihydroxytetrahydrofuran-2-yl)methoxy)-1-(methyslulfonyl)propan-2-yl)phosphonic acid]

Continued, compound first:

Row | SMILES | pIC50
9 | O=P(O)(O)C(CO)OC[C@H]1O[C@@H](n2ncc3c(NC4CCCC4)cc(Cl)nc32)[C@H](O)[C@@H]1O (stereo partly drawn) [Example 57, (1-(((2R,3S,4R,5R)-5-(6-Chloro-4-(cyclopentylamino)-1H-pyrazolo[3,4-b]pyridin-1-yl)-3,4-dihydroxytetrahydrofuran-2-yl)methoxy)-2-hydroxyethyl)phosphonic acid] | ≥ 7.00
10 | C[C@@](CO)(OC[C@H]1O[C@@H](n2nnc3c(NC4CCCC4)cc(Cl)nc32)[C@H](O)[C@@H]1O)P(=O)(O)O [Example 139, ((R)-2-(((2R,3S,4R,5R)-5-(5-chloro-7-(cyclopentylamino)-3H-[1,2,3]triazolo[4,5-b]pyridin-3-yl)-3,4-dihydroxytetrahydrofuran-2-yl)methoxy)-1-hydroxypropan-2-yl)phosphonic acid] | ≥ 7.00
11 | O=P(O)(O)[C@](CO)(Cc1nn[nH]n1)OC[C@H]1O[C@@H](n2ncc3c(NC4CCC4)nc(Cl)nc32)[C@H](O)[C@@H]1O (racemic) [Example 214, rac-((R)-2-(((2S,3R,4S,5S)-5-(6-chloro-4-(cyclobutylamino)-1H-pyrazolo[3,4-d]pyrimidin-1-yl)-3,4-dihydroxytetrahydrofuran-2-yl)methoxy)-1-hydroxy-3-(2H-tetrazol-5-yl)propan-2-yl)phosphonic acid] | ≥ 7.00
12 | C[C@](CO)(OC[C@H]1O[C@@H](n2nnc3c(NC4CCCC4)cc(Cl)nc32)[C@H](O)[C@@H]1O)P(=O)(O)O [Example 140, ((S)-2-(((2R,3S,4R,5R)-5-(5-chloro-7-(cyclopentylamino)-3H-[1,2,3]triazolo[4,5-b]pyridin-3-yl)-3,4-dihydroxytetrahydrofuran-2-yl)methoxy)-1-hydroxypropan-2-yl)phosphonic acid] | ≥ 7.00
13 | O=P(O)(O)C(CO)OC[C@H]1O[C@@H](n2ncc3c(NCC4CC4)nc(Cl)nc32)[C@H](O)[C@@H]1O (stereo partly drawn) [Example 30, (1-(((2R,3S,4R,5R)-5-(6-chloro-4-((cyclopropylmethyl)amino)-1H-pyrazolo[3,4-d]pyrimidin-1-yl)-3,4-dihydroxytetrahydrofuran-2-yl)methoxy)-2-hydroxyethyl)phosphonic acid] | ≥ 7.00
14 | CC(CO)(OC[C@H]1O[C@@H](n2nnc3c(N[C@@H]4CCc5ccccc54)nc(Cl)nc32)[C@H](O)[C@@H]1O)P(=O)(O)O (stereo partly drawn) [Example 78, (2-(((2R,3S,4R,5R)-5-(5-chloro-7-(((R)-2,3-dihydro-1H-inden-1-yl)amino)-3H-[1,2,3]triazolo[4,5-d]pyrimidin-3-yl)-3,4-dihydroxytetrahydrofuran-2-yl)methoxy)-1-hydroxypropan-2-yl)phosphonic acid] | ≥ 7.00
15 | C[C@H](Nc1nc(Cl)nc2c1cnn2[C@@H]1O[C@H](COC(C)(CO)P(=O)(O)O)[C@@H](O)[C@H]1O)c1ccc(F)cc1 (mixture of isomers) [Example 183, rac-(2-(((2R,3S,4R,5R)-5-(6-chloro-4-(((S)-1-(4-fluorophenyl)ethyl)amino)-1H-pyrazolo[3,4-d]pyrimidin-1-yl)-3,4-dihydroxytetrahydrofuran-2-yl)methoxy)-1-hydroxypropane-2-yl)phosphonic acid] | ≥ 7.00
16 | CCOC(=O)C(OC[C@H]1O[C@@H](n2ncc3c(NC4CCCC4)nc(Cl)nc32)[C@H](O)[C@@H]1O)P(=O)(O)O (stereo partly drawn) [Example 1, (1-(((2R,3S,4R,5R)-5-(6-Chloro-4-(cyclopentylamino)-1H-pyrazolo[3,4-d]pyrimidin-1-yl)-3,4-dihydroxytetrahydrofuran-2-yl)methoxy)-2-ethoxy-2-oxoethyl)phosphonic acid] | ≥ 7.00
17 | COC[C@](C)(OC[C@H]1O[C@@H](n2ncc3c(NCC4CC4)nc(Cl)nc32)[C@H](O)[C@@H]1O)P(=O)(O)O [Example 131, ((R)-2-(((2R,3S,4R,5R)-5-(6-chloro-4-((cyclopropylmethyl)amino)-1H-pyrazolo[3,4-d]pyrimidin-1-yl)-3,4-dihydroxytetrahydrofuran-2-yl)methoxy)-1-methoxypropan-2-yl)phosphonic acid] | ≥ 7.00
18 | O=P(O)(O)[C@@](CO)(COCc1ccccc1)OC[C@H]1O[C@@H](n2ncc3c(NC4CCCC4)nc(Cl)nc32)[C@H](O)[C@@H]1O (racemic) [Example 180, rac-((R)-1-(benzyloxy)-2-(((2S,3R,4S,5S)-5-(6-chloro-4-(cyclopentyalmino)-1H-pyrazolo[3,4-d]pyrimidin-1-yl)-3,4-dihydroxytetrahydrofuran-2-yl)methoxy)-3-hydroxypropan-2-yl)phosphonic acid] | ≥ 7.00
19 | O=P(O)(O)COC[C@H]1O[C@@H](n2nnc3c(NC4CCCC4)cc(Cl)nc32)[C@H](O)[C@@H]1O [Example 17, ((((2R,3S,4R,5R)-5-(5-Chloro-7-(cyclopentylamino)-3H-[1,2,3]triazolo[4,5-b]pyridin-3-yl)-3,4-dihydroxytetrahydrofuran-2-yl)methoxy)methyl)phosphonic acid] | 6.00 to 7.00
20 | O=P(O)(O)C(CO)(CCO)OC[C@H]1O[C@@H](n2ncc3c(NC4CCCC4)nc(Br)nc32)[C@H](O)[C@@H]1O (stereo partly drawn) [Example 37, (2-(((2R,3S,4R,5R)-5-(6-bromo-4-(cyclopentylamino)-1H-pyrazolo[3,4-d]pyrimidin-1-yl)-3,4-dihydroxytetrahydrofuran-2-yl)methoxy)-1,4-dihydrobutan-2-yl)phosphonic acid] | ≥ 7.00
21 | O=P(O)(O)C(CO)OC[C@H]1O[C@@H](n2ccc3c(NC4CCCC4)nc(Cl)nc32)[C@H](O)[C@@H]1O (stereo partly drawn) [Example 117, (1-(((2R,3S,4R,5R)-5-(2-chloro-4-(cyclopentylamino)-7H-pyrrolo[2,3-d]pyrimidin-7-yl)-3,4-dihydroxytetrahydrofuran-2-yl)methoxy)-2-hydroxyethyl)phosphonic acid] | ≥ 7.00

Reference: patent US11325938B2, “CD73 inhibitors” (ORIC Pharmaceuticals, Inc., priority 2018, dated 2022)
